According to patent publication EP0255256A2, “Antibiotics produced by actinomadura parvosata” (SMITHKLINE BECKMAN CORPORATION, priority 1986, dated 1988):
Converted amounts (≈) assume the structure as drawn. Like-named read-outs stand apart in the source and are kept apart here.

Key:
Staph. aureus 675 = assay: MBC, standard assay procedures; format: cell-based
Description: (§1) The in vitro minimal bactericidal concentration (MBC) of the AAJ-271 C, C2 and C3 factors and vancomycin were determined for a number of microorganisms using standard assay procedures.
(§2) The in vitro minimal inhibitory concentration (MIC) and the in vitro minimal bactericidal concentration (MBC) of the AAJ-271 aglycones, pseudo-aglycone and vancomycin were determined for a number of microorganisms using the standard microtiter assay procedures.

Strep. faecalis 34358 [1] = assay: MBC, standard assay procedures; format: cell-based
Description: as §1, §2

Staph. aureus HH127 [2] = assay: MBC, standard assay procedures; format: cell-based; conditions: Staphylococcus aureus
Description: as §1, §2

Staph. haemolyticus 651 [3] = assay: MBC, standard assay procedures; format: cell-based
Description: as §1, §2

Strep. faecalis 657 = assay: MBC, standard assay procedures; format: cell-based
Description: as §1, §2

Staph. epidermidis 2479 [4] = assay: MBC, standard assay procedures; format: cell-based
Description: as §1, §2

Staph. epidermidis 2265 = assay: MBC, standard assay procedures; format: cell-based
Description: as §1, §2

Staph. aureus 2620 = assay: MBC, standard assay procedures; format: cell-based
Description: as §1, §2

Staph. aureus HH127 [5] = assay: Mouse protection assay; format: in vivo; conditions: Staphylococcus aureus
Strep. faecalis 34358 [6] = assay: Mouse protection assay; format: in vivo
Staph. aureus 2630 = assay: Mouse protection assay; format: in vivo; conditions: Staphylococcus aureus, 2630, 1 h
[7] = system: Staph. aureus 209P vancomycin resistant mutant; assay: MIC, standard microtiter assay; format: cell-based; conditions: Staphylococcus aureus, read-out: MIC in μg/ml
Description: as §2

Staph. epidermidis 2261 [8] = assay: MIC, standard microtiter assay; format: cell-based; conditions: Staphylococcus epidermidis, 2261, read-out: MIC in μg/ml
Description: as §2

[9] = system: Staph. aureus 209P vancomycin resistant mutant; assay: MBC, standard assay procedures; format: cell-based; conditions: Staphylococcus aureus, read-out: MBC in μg/ml
Description: as §2

[10] = system: Strep. pyogenes (Group A); assay: MBC, standard assay procedures; format: cell-based; conditions: Streptococcus pyogenes, read-out: MBC in μg/ml
Description: as §2

[11] = system: Staph. saprophyticus 2657; assay: MBC, standard assay procedures; format: cell-based; conditions: Staphylococcus saprophyticus, 2657, read-out: MBC in μg/ml
Description: as §2

Staph. aureus 209P = assay: MBC, standard assay procedures; format: cell-based; conditions: Staphylococcus aureus, 209P, read-out: MBC in μg/ml
Description: as §2

Staph. aureus 910 = assay: MBC, standard assay procedures; format: cell-based; conditions: Staphylococcus aureus, 910, read-out: MBC in μg/ml
Description: as §2

Staph. epidermidis 2261 [12] = assay: MBC, standard assay procedures; format: cell-based; conditions: Staphylococcus epidermidis, 2261, read-out: MBC in μg/ml
Description: as §2

Staph. epidermidis 2588 = assay: MBC, standard assay procedures; format: cell-based; conditions: Staphylococcus epidermidis, 2588, read-out: MBC in μg/ml
Description: as §2

Staph. epidermidis 2256 = assay: MBC, standard assay procedures; format: cell-based; conditions: Staphylococcus epidermidis, 2256, read-out: MBC in μg/ml
Description: as §2

[13] = Serum half-life and urine concentration in mice (disk agar diffusion bioassay); conditions: mouse, in vivo; strain CD-1 mice; antibiotic activity in blood serum by disk agar diffusion, Bacillus subtilis ATCC 6633 indicator
Description: The antibiotic compounds of the present invention also have a very long serum half-life. The compounds of the present invention have a serum half-life of 12 hours compared to 0.3 hour for vancomycin. […] Antibiotic activity in blood serum was evaluated by disk agar diffusion with penicillin assay agar that was seeded with a Bacillus subtilis ATCC 6633 spore suspension as the indicator. Serum samples were evaluated against standards diluted in mouse serum and urines were evaluated against standards prepared in 1% pH 6 phosphate buffer. Assays were incubated at 28°C. […] The long half-life of the compounds of the present invention indicate usefulness prophylactically as an aid in prevention of infection.

Staph. haemolyticus 651 [14] = assay: MIC, standard microtiter assay; format: cell-based
Description: (§3) The in vitro minimal inhibitory concentration (MIC) of the AAJ-271 complex and its factors, and vancomycin were determined for a number of microorganisms using the standard microtite'r assay procedures. The results are shown in the following tables, each of which represents a different production run of the complex.
as §2

Staph. epidermidis 2479 [15] = assay: MIC, standard microtiter assay; format: cell-based; conditions: Staphylococcus epidermidis, 2479, read-out: MIC in μg/ml, Staph. epidermidis 2479
Description: as §3, §2

Staph. haemolyticus 651 [16] = assay: Mouse protection assay; format: in vivo; conditions: Staphylococcus haemolyticus, 1 h; mice; Staph. haemolyticus 651, Dosage as No. of LD50's=9; treatment one hour post infection; Table IV

Compound: CN[C@H](CC(C)C)C(=O)N[C@H]1C(=O)N[C@@H](CC(N)=O)C(=O)N[C@H]2C(=O)N[C@H]3C(=O)N[C@H](C(=O)N[C@H](C(=O)O)c4cc(O)cc(O)c4-c4cc3ccc4O)[C@H](O)c3ccc(c(Cl)c3)Oc3cc2cc(c3O[C@@H]2O[C@H](CO)[C@@H](O)[C@H](O)[C@H]2O[C@H]2C[C@](C)(N)[C@H](O)[C@H](C)O2)Oc2ccc(cc2Cl)[C@H]1O [Vancomycin, vancomycin]
- MBC (Staph. aureus 675; Staphylococcus aureus, 675, read-out: MBC in μg/ml, Staph. aureus 675, Table IX): 6.3 µg/mL (≈ 4.35 µM)
- MBC (Staph. aureus 675; Staphylococcus aureus, 675, read-out: MBC in μg/ml, Staph. aureus 675, Table VIII): 3.1 µg/mL (≈ 2.14 µM)
- MBC (Staph. aureus 675; Staphylococcus aureus, IIIB, read-out: MBC in μg/ml, Staph. aureus 675, Table IIIB): 6.3 µg/mL (≈ 4.35 µM)
- MBC (Strep. faecalis 34358 [1]; Enterococcus faecalis, 34358, read-out: MBC in μg/ml, Strep. faecalis 34358, Table IX): 12.5 µg/mL (≈ 8.63 µM)
- MBC (Strep. faecalis 34358 [1]; Enterococcus faecalis, 34358, read-out: MBC in μg/ml, Strep. faecalis 34358, Table VIII): 50 µg/mL (≈ 34.5 µM)
- MBC (Strep. faecalis 34358 [1]; Enterococcus faecalis, read-out: MBC in μg/ml, Strep. faecalis 34358, Table): 12.5 µg/mL (≈ 8.63 µM)
- MBC (Staph. aureus HH127 [2]; HH127, read-out: MBC in μg/ml, Staph. aureus HH127, Table IX): 3.1 µg/mL (≈ 2.14 µM)
- MBC (Staph. aureus HH127 [2]; HH127, read-out: MBC in μg/ml, Staph. aureus HH127, Table VIII): 1.6 µg/mL (≈ 1.1 µM)
- MBC (Staph. aureus HH127 [2]; IIIB, read-out: MBC in μg/ml, Staph. aureus HH127, Table IIIB): 3.1 µg/mL (≈ 2.14 µM)
- MBC (Staph. haemolyticus 651 [3]; Staphylococcus haemolyticus, 651, read-out: MBC in μg/ml, Staph. haemolyticus 651, Table IX): 12.5 µg/mL (≈ 8.63 µM)
- MBC (Staph. haemolyticus 651 [3]; Staphylococcus haemolyticus, 651, read-out: MBC in μg/ml, Staph. haemolyticus 651, Table VIII): 3.1 µg/mL (≈ 2.14 µM)
- MBC (Staph. haemolyticus 651 [3]; Staphylococcus haemolyticus, IIIB, read-out: MBC in μg/ml, Staph. haemolyticus 651, Table IIIB): 12.5 µg/mL (≈ 8.63 µM)
- MBC (Strep. faecalis 657; Enterococcus faecalis, 657, read-out: MBC in μg/ml, Strep. faecalis 657, Table IX): 6.3 µg/mL (≈ 4.35 µM)
- MBC (Strep. faecalis 657; Enterococcus faecalis, 657, read-out: MBC in μg/ml, Strep. faecalis 657, Table VIII): 3.1 µg/mL (≈ 2.14 µM)
- MBC (Strep. faecalis 657; Enterococcus faecalis, IIIB, read-out: MBC in μg/ml, Strep. faecalis 657, Table IIIB): 6.3 µg/mL (≈ 4.35 µM)
- MBC (Staph. epidermidis 2479 [4]; Staph. epidermidis 2479, Table IX): 6.3 µg/mL (≈ 4.35 µM)
- MBC (Staph. epidermidis 2479 [4]; Staphylococcus epidermidis, 2479, read-out: MBC in μg/ml): 6.3 µg/mL (≈ 4.35 µM)
- MBC (Staph. epidermidis 2479 [4]; Staphylococcus epidermidis, IIIB, read-out: MBC in μg/ml): 6.3 µg/mL (≈ 4.35 µM)
- MBC (Staph. epidermidis 2265; Staphylococcus epidermidis, 2265, read-out: MBC in μg/ml, Staph. epidermidis 2265, Table IX): 6.3 µg/mL (≈ 4.35 µM)
- MBC (Staph. epidermidis 2265; Staphylococcus epidermidis, 2265, read-out: MBC in μg/ml, Staph. epidermidis 2265, Table VIII): 3.1 µg/mL (≈ 2.14 µM)
- MBC (Staph. epidermidis 2265; Staphylococcus epidermidis, IIIB, read-out: MBC in μg/ml, Staph. epidermidis 2265, Table IIIB): 6.3 µg/mL (≈ 4.35 µM)
- MBC (Staph. aureus 2620; Staphylococcus aureus, 2620, read-out: MBC in μg/ml, Staph. aureus 2620, Table IX): 3.1 µg/mL (≈ 2.14 µM)
- MBC (Staph. aureus 2620; Staphylococcus aureus, 2620, read-out: MBC in μg/ml, Staph. aureus 2620, Table VIII): 1.6 µg/mL (≈ 1.1 µM)
- MBC (Staph. aureus 2620; Staphylococcus aureus, IIIB, read-out: MBC in μg/ml, Staph. aureus 2620, Table IIIB): 3.1 µg/mL (≈ 2.14 µM)
- ED50 (Staph. aureus HH127 [5]; HH127, 1 h): 0.26 mg/kg
- ED50 (Staph. aureus HH127 [5]; HH127, iv, 1 h): 2.8 mg/kg
- ED50 (Strep. faecalis 34358 [6]; Enterococcus faecalis, 34358, 1 h): 1.25 mg/kg
- ED50 (Strep. faecalis 34358 [6]; Enterococcus faecalis, 34358, iv, 1 h): 1.3 mg/kg
- ED50 (Staph. aureus 2630): 0.78 mg/kg
- MIC [7]: > 100 µg/mL
- MIC (Staph. epidermidis 2261 [8]): 6.3 µg/mL (≈ 4.35 µM)
- MBC [9]: > 100 µg/mL
- MBC [10]: 0.8 µg/mL (≈ 0.552 µM)
- MBC [11]: 6.3 µg/mL (≈ 4.35 µM)
- MBC (Staph. aureus 209P): 0.8 µg/mL (≈ 0.552 µM)
- MBC (Staph. aureus 910): 1.6 µg/mL (≈ 1.1 µM)
- MBC (Staph. epidermidis 2261 [12]): 3.1 µg/mL (≈ 2.14 µM)
- MBC (Staph. epidermidis 2588): 6.3 µg/mL (≈ 4.35 µM)
- MBC (Staph. epidermidis 2256): 3.1 µg/mL (≈ 2.14 µM)
- half-life [13]: 18 min
- MIC (Staph. haemolyticus 651 [14]; Staph. haemolyticus 651, Table II): 3.1 µg/mL (≈ 2.14 µM)
- MIC (Staph. haemolyticus 651 [14]; Staph. haemolyticus 651, Table IX): 3.1 µg/mL (≈ 2.14 µM)
- MIC (Staph. haemolyticus 651 [14]; Staph. haemolyticus 651, Table VIII): 3.1 µg/mL (≈ 2.14 µM)
- MIC (Staph. haemolyticus 651 [14]; Staphylococcus haemolyticus, 651, read-out: MIC in μg/ml): 3.1 µg/mL (≈ 2.14 µM)
- MIC (Staph. epidermidis 2479 [15]; Table I): 1.6 µg/mL (≈ 1.1 µM)
- MIC (Staph. epidermidis 2479 [15]; Table II): 6.3 µg/mL (≈ 4.35 µM)
- MIC (Staph. epidermidis 2479 [15]; Table IX): 6.3 µg/mL (≈ 4.35 µM)
- MIC (Staph. epidermidis 2479 [15]; Table VIII): 3.1 µg/mL (≈ 2.14 µM)
- ED50 (Staph. haemolyticus 651 [16]): 2.2 mg/kg
